# Read-outs that look alike come from different tables or passages of the source.
# Key:
# [1] = tested on: Zymoseptoria tritici K6105; assay: Efficacy of mixtures of streptimidone and CtmC, liquid culture in PDB, optical density 620 nm; format: cell-based
# [2] = tested on: Zymoseptoria tritici K6420; assay: as above; format: cell-based; conditions: K6420, read-out: % Efficacy
# Microdochium nivale = assay: as above; format: cell-based; conditions: read-out: % Efficacy
# [3] = tested on: Fusarium virguliforme isolate 1; assay: Efficacy of purified CtmC, 96-well growth assay, IC50 from OD620; format: cell-based
# Method: (§1) A Fusarium virguliforme spore suspension of 25′000 spores/ml was produced in PDB (potato dextrose broth) medium supplemented with 0.3% agar. Isolates of the species originate from Syngenta internal collection (CH).
# (§2) CtmC was dissolved in DMSO (Dimethylsulfoxid) to a final concentration of 1000 ppm to create a stock solution. Different dilutions of CtmC were created in DMSO: 1000 ppm, 330 ppm, 110 ppm, 37 ppm, 12 ppm and 4.1 ppm. 10 μl of DMSO or CtmC solution were transferred to a 96-well-dilution plate and diluted 10-fold with 90 μl 0.025% Tween 20/1H2O solution. Out of the dilution plate, 10 μl were transferred to a 96 well assay plate and 90 μl spore suspension were added to each well.
# (§3) 96 Well plates were then incubated for 72 h at 24° C., 90% relative humidity in the dark. Plates were evaluated by reading the OD at 620 nm.
# (§4) Assays were run on two independent isolates for the species. Each isolate was tested twice (assay 1 and assay 2) and each isolate x fungicide rate combination was duplicated on the test plates.
# (§5) The OD620 was averaged over the two wells and used to calculate IC50 values (fungicide concentration resulting in 50% inhibition of growth) with the program GraphPad prism, resulting in 4 independent IC50 values. No significant differences were found between both isolates tested: […]
# [4] = tested on: Fusarium virguliforme isolate 2; assay: as above; format: cell-based
# Method: as §1, §2, §3, §4, §5
# Mycosphaerella arachidis = assay: Greenhouse test, peanut (groundnut), preventative; format: in vivo; conditions: 1 day preventative, EC50 formulation
# Method: Purified Cyclothiazomycin C (CtmC) was formulated as an EC50 formulation. The formulation was diluted in water at rates of 100 ppm and 50 ppm of CtmC. Plants were treated with 400 L/ha of the diluted product supplemented with an adjuvant to improve sticking and spreading, resulting in a treatment of 40 g/ha and 20 g/ha of CtmC, respectively.
# Mycosphaerella arachidis peanut/preventative (Brown leaf spot on groundnut) 3-week old peanut plants cv. Georgia Green are sprayed in a spray chamber with the formulated test compound diluted in water. The test plants are inoculated by spraying them with a spore suspension on their lower leaf surface one day after application. After an incubation period of 4 days under a plastic hood at 23° C. and 100% rh, the inoculated test plants are kept at 23° C./20° C. (day/night) and 70% rh in a greenhouse. The percentage leaf area covered by disease is assessed when an appropriate level of disease appears on untreated check plants (12-14 days after application).
# [5] = tested on: Fusarium virguliforme isolate 1; assay: Effect of Tween 20 on efficacy of purified CtmC, EC50; format: cell-based
# From the text: (§6) This is contrary to our results. In order to eliminate the possibility that the fungicidal effect that we observe was down to the presence of Tween 20 we carried out some experiments like those in Example 3 but with various levels of Tween 20, including none.
# (§7) The experiment at outlined in Example 3 was repeated to evaluate the EC50 values for CtmC control on Fusarium virguliforme in presence of 4 different rates of Tween20: 0% (absence of Tween 20), 0.0025%, 0.0050% […] and 0.0100%. The plate layout was identical to Example 7, except that the plates were multiplied 4 times to accommodate the different Tween 20 concentrations in the assay plate. All other experimental conditions were kept identical. Fusarium isolates were tested at 25′000 sp/ml.
# [6] = tested on: Fusarium virguliforme isolate 2; assay: as above; format: cell-based
# From the text: as §6, §7
# [7] = tested on: Fusarium langsethiae K5670; format: cell-based; conditions: CtmC 10 ppm
# [8] = tested on: Fusarium sporotrichioides K7901; format: cell-based; conditions: CtmC 10 ppm
# Gibberella zeae K6102 = format: cell-based; conditions: CtmC 10 ppm
# [9] = tested on: Pyrenophora tritici-repentis K6186; assay: Efficacy of purified CtmC alone in-vitro, 96 well plate, OD 620 nm; format: cell-based; conditions: CtmC 10 ppm, mycelium inoculum
# Method: CtmC was dissolved in DMSO (Dimethylsulfoxid) to a final concentration of 1000 ppm to create a stock solution. A second dilutions of 1:10 was made in water+0.025% Tween 20. From this second dilution 10 μl are dispensed into a 96 well plate. […] All wells containing CtmC also contain DMSO (1%) and Tween 20 (0.0025%). In the following table 4 some of the species were tested using several distinct isolates (internal strain number indicated) to understand variability among different isolates of the same species sampled in different locations, producing different mycotoxins (genus Fusarium), or expressing various tolerances to fungicides of the SDHI (Succinate Dehydrogenase Inhibitor), SBI (Sterol Biosynthesis Inhibitors) and/or QoI (quinone outside inhibitors) classes (example: Zymoseptoria tritici). Different isolates had variable inoculum density and number of biological repicas, as indicated.
# [10] = 72 h at 24° C., 25'000 spores/ml
smiles,measurement,setting,value
"C=C1NC(=O)CNC(=O)[C@H](CCCCN)NC(=O)[C@@]2(C)NC(=O)/C(=C/C)NC(=O)[C@H]3CSC(=N3)[C@@H](CC(N)=O)CC(=O)c3ccc(nc3[C@@H](C)NC(=O)[C@@H]3CCCN3C1=O)-c1nc(cs1)C1=N[C@H](CS1)C(=O)NC(=C)c1nc(cs1)-c1nc(cs1)C1=N[C@@H](CS1)C(=O)N[C@@H](C(=O)O)CS2 [CtmC, cyclothiazomycin C]",Emax at 0.0556 ppm,"[1]; K6105, read-out: % Efficacy, CtmC 0.0556 ppm alone (Streptimidone 0), lower sub-table",0%
same,Emax at 0.0556 ppm,"[1]; K6105, read-out: % Efficacy, CtmC 0.0556 ppm alone (Streptimidone 0), upper sub-table",19%
same,Emax at 0.1667 ppm,"[1]; K6105, read-out: % Efficacy, CtmC 0.1667 ppm alone (Streptimidone 0), lower sub-table",23%
same,Emax at 0.1667 ppm,"[1]; K6105, read-out: % Efficacy, CtmC 0.1667 ppm alone (Streptimidone 0), upper sub-table",61%
same,Emax at 0.5 ppm,"[1]; K6105, read-out: % Efficacy, CtmC 0.5000 ppm alone (Streptimidone 0), lower sub-table",47%
same,Emax at 0.5 ppm,"[1]; K6105, read-out: % Efficacy, CtmC 0.5000 ppm alone (Streptimidone 0), upper sub-table",78%
same,Emax at 0.0556 ppm,[2],0%
same,Emax at 0.1667 ppm,[2],23%
same,Emax at 0.5 ppm,[2],47%
same,Emax at 0.0333 ppm,Microdochium nivale,19%
same,Emax at 0.1 ppm,Microdochium nivale,42%
same,IC50 (ppm) Assay-1,[3]; [10],0.8 ppm
same,IC50 (ppm) Assay-2,[3]; [10],1.6 ppm
same,IC50 (ppm) average,[3]; average of Assay-1 and Assay-2,1.2 ppm
same,IC50,[3]; both tested isolates,ca. 1 ppm
same,IC50 (ppm) Assay-1,[4]; [10],0.7 ppm
same,IC50 (ppm) Assay-2,[4]; [10],1.5 ppm
same,IC50 (ppm) average,[4]; average of Assay-1 and Assay-2,1.1 ppm
same,IC50,[4]; both tested isolates,ca. 1 ppm
same,efficacy 20 g/ha (%),Mycosphaerella arachidis; 20 g/ha,56%
same,efficacy 40 g/ha (%),Mycosphaerella arachidis; 40 g/ha,65%
same,EC50 (ppm),[5]; Tween 20 0%,1.422 ppm
same,EC50 (ppm),[5]; Tween 20 0.0025%,1.053 ppm
same,EC50 (ppm),[5]; Tween 20 0.0050%,0.8103 ppm
same,EC50 (ppm),[5]; Tween 20 0.0100%,1.436 ppm
same,EC50 (ppm),[6]; Tween 20 0%,1.098 ppm
same,EC50 (ppm),[6]; Tween 20 0.0025%,0.889 ppm
same,EC50 (ppm),[6]; Tween 20 0.0050%,0.7844 ppm
same,EC50 (ppm),[6]; Tween 20 0.0100%,1.035 ppm
same,efficacy (%),[7],94%
same,optical density at 620 nm,"[7]; blank 0.053, untreated 0.346",0.072
same,efficacy (%),[8],71%
same,optical density at 620 nm,"[8]; blank 0.052, untreated 0.666",0.231
same,efficacy (%),Gibberella zeae K6102,52%
same,optical density at 620 nm,"Gibberella zeae K6102; blank 0.044, untreated 0.733",0.377
same,efficacy (%),[9],90%
same,optical density at 620 nm,"[9]; blank 0.046, untreated 0.508",0.094

# From US20240334934A1, “FUNGICIDE MIXTURE” (priority 2021, published 2024)
